In brackets after ≈: the same amount, converted by molar mass.
Experiments:
[1] = tested on: S. aureus ATCC 29213; settings: CLSI range; cited from earlier work
[2] = tested on: Pseudomonas aeruginosa ATCC 27853; assay: Rapid antibiotic susceptibility test (RAST) in microfluidic agarose channel (MAC), MIC by single-cell time-lapse imaging; type: cell-based; settings: P. aeruginosa ATCC 27853, RAST method in MAC; for MIC: Pseudomonas aeruginosa, ATCC27853
Method: (§1) Radial microfluidic channels with six branches were formed using soft-lithography. First, SU8 mold (2015 SU8, Microchem) was fabricated by employing photolithography. Polydimethylsiloxane (PDMS, Dow Corning) was mixed with a curing agent (10:1, w/w) and poured into the SU8. After baking at 150° C. for 10 min, the PDMS was peeled off and attached to the PDMS-coated slide glass by O2 plasma treatment to obtain a radial microfluidic channel chip capable of testing antibiotics having five concentrations and a control with no antibiotic. There were six main channels that carried one side-branched channel each. […] A mixture of agarose and bacteria was allowed to flow in the main channels, and the bioactive agents were allowed to flow in the respective side-branched channels. In the middle of each main channel, there were anchors in the form of micro-sized posts for forming an interface between the agarose and each of the bioactive agents. The posts blocked the agarose from flowing into the side-branched channel. The sizes of the posts and the pitches between the posts were determined by mathematical calculations. For appropriate hydrophobicity to occur in the channel, the channel was prepared one day before experiment to increase the surface tension after O2 plasma treatment. Agarose is solidified at a temperature lower than 36° C. The cultured bacteria were mixed with 2% agarose (1:3, v/v) at 45° C. and immediately injected into the microfluidic channels. The agarose-bacteria mixture was solidified at 25° C. for 1 min. The obtained microfluidic agarose channel (MAC) chip was placed on a hot plate and incubated at 37° C. To provide nutrients, liquid CAMHB medium was supplied through the side-branched channels. The growth of the bacteria was monitored using a microscope. Bacterial growth was not inhibited and could be clearly monitored in the MAC system. Bacterial cell images were taken with a CCD camera; the images were then processed to determine the MIC values of the antibiotics. The image data were transformed into digital data using an image processing program, which is coded in Matlab. For the calculations, RGB images were transformed into grey formatted images. The background data were eliminated to obtain sharp data without noise. Then, the contrast was enhanced to change the processed images into binary format images. […] The Matlab program calculated the areas that were occupied by each bacterium. A longer incubation time allowed each bacterium to grow and occupy more area. The occupied areas were measured using the image processing program. 200 μl of Mueller-Hinton agar including 5×10^8 cells/ml bacterial cells and 600 μl of 2% liquid agarose at 45° C. was mixed thoroughly by a vortex generator (vortex Genie 2). The agarose-bacteria mixture was placed in the main channels of the microfluidic channel system using a syringe pump (KdScientific) at stable flow rate (2 ml/hr) to prevent bursting into the side-branched channels. After the liquid agarose was solidified at room temperature to immobilize the bacteria in the main channels, the MHA medium containing the antibiotic was injected into the side-branched channels using the syringe pump at a rate of 10 μl/hr to diffuse into the agarose-bacteria mixture. Bacterial growth was monitored by using a microscope (40×) and a CCD camera. Images of bacterial growth were taken every hour and were analyzed by using the image processing program. […] The obtained MIC values were verified by the conventional method (microdilution method) and compared with the MIC data of the CLSI. […] The images of the left group are RGB images before processing, and the images of the right group are images after processing for clear observation. After image processing, the bacteria that occupied the area were measured and plotted on the graph for different concentrations of gentamicin according to the incubation time. […] The MIC values were in the MIC ranges of the CLSI data.

[3] = tested on: Staphylococcus aureus ATCC 29213; assay: as above; type: cell-based; settings: S. aureus ATCC 29213, RAST method in MAC; for MIC: Staphylococcus aureus, ATCC29213
Method: as §1

[4] = tested on: P. aeruginosa ATCC 27853; settings: CLSI range; cited from earlier work
[5] = tested on: E. coli ATCC 25922; settings: CLSI range; cited from earlier work
[6] = tested on: Escherichia coli ATCC 25922; assay: Rapid antibiotic susceptibility test (RAST) in microfluidic agarose channel (MAC), MIC by single-cell time-lapse imaging; type: cell-based; settings: E. coli ATCC 25922, RAST method in MAC; for MIC: Escherichia coli, ATCC25922
Method: Radial microfluidic channels with six branches were formed using soft-lithography. First, SU8 mold (2015 SU8, Microchem) was fabricated by employing photolithography. Polydimethylsiloxane (PDMS, Dow Corning) was mixed with a curing agent (10:1, w/w) and poured into the SU8. After baking at 150° C. for 10 min, the PDMS was peeled off and attached to the PDMS-coated slide glass by O2 plasma treatment to obtain a radial microfluidic channel chip capable of testing antibiotics having five concentrations and a control with no antibiotic. There were six main channels that carried one side-branched channel each. […] A mixture of agarose and bacteria was allowed to flow in the main channels, and the bioactive agents were allowed to flow in the respective side-branched channels. In the middle of each main channel, there were anchors in the form of micro-sized posts for forming an interface between the agarose and each of the bioactive agents. The posts blocked the agarose from flowing into the side-branched channel. The sizes of the posts and the pitches between the posts were determined by mathematical calculations. For appropriate hydrophobicity to occur in the channel, the channel was prepared one day before experiment to increase the surface tension after O2 plasma treatment. Agarose is solidified at a temperature lower than 36° C. The cultured bacteria were mixed with 2% agarose (1:3, v/v) at 45° C. and immediately injected into the microfluidic channels. The agarose-bacteria mixture was solidified at 25° C. for 1 min. The obtained microfluidic agarose channel (MAC) chip was placed on a hot plate and incubated at 37° C. To provide nutrients, liquid CAMHB medium was supplied through the side-branched channels. The growth of the bacteria was monitored using a microscope. Bacterial growth was not inhibited and could be clearly monitored in the MAC system. Bacterial cell images were taken with a CCD camera; the images were then processed to determine the MIC values of the antibiotics. The image data were transformed into digital data using an image processing program, which is coded in Matlab. For the calculations, RGB images were transformed into grey formatted images. The background data were eliminated to obtain sharp data without noise. Then, the contrast was enhanced to change the processed images into binary format images. […] The Matlab program calculated the areas that were occupied by each bacterium. A longer incubation time allowed each bacterium to grow and occupy more area. The occupied areas were measured using the image processing program. […] Bacterial growth was monitored by using a microscope (40×) and a CCD camera. Images of bacterial growth were taken every hour and were analyzed by using the image processing program. […]

[7] = tested on: P. aeruginosa ATCC 27853 biofilm; assay: Antibiotic susceptibility of biofilms in the MAC system; type: cell-based, Pseudomonas aeruginosa; settings: biofilm formation by 4 hr aging in the MAC system

Molecule | MIC, CLSI [1] | MIC [2] | MIC [3] | MIC, CLSI [4] | MIC, CLSI [5] | MIC [6] | MIC value after biofilm formation [7] | MIC, RAST [2] | MIC, RAST [3] | MIC, RAST [6]
NCC[C@H](O)C(=O)N[C@@H]1C[C@H](N)[C@@H](O[C@H]2O[C@H](CN)[C@@H](O)[C@H](O)[C@H]2O)[C@H](O)[C@H]1O[C@H]1O[C@H](CO)[C@@H](O)[C@H](N)[C@H]1O [Amikacin] | 1 to 4 µg/mL | 4 µg/mL (≈ 6.83 µM) | 4 µg/mL (≈ 6.83 µM) | 1 to 4 µg/mL | 0.5 to 4 µg/mL | 4 µg/mL (≈ 6.83 µM) |  |  |  | 
CCn1cc(C(=O)O)c(=O)c2cc(F)c(N3CCNCC3)cc21 [Norfloxacin] | 0.5 to 2 µg/mL | 2 µg/mL (≈ 6.26 µM) | 0.5 µg/mL (≈ 1.57 µM) | 1 to 4 µg/mL | 0.03 to 0.12 µg/mL | 0.03 µg/mL (≈ 0.0939 µM) | 32 µg/mL (≈ 100 µM) |  |  | 
CN(C)[C@@H]1C(O)=C(C(N)=O)C(=O)[C@@]2(O)C(O)=C3C(=O)c4c(O)cccc4[C@@](C)(O)[C@H]3C[C@@H]12 [Tetracycline] |  | 32 µg/mL (≈ 72 µM) | 0.5 µg/mL (≈ 1.13 µM) |  |  | 1 µg/mL (≈ 2.25 µM) |  |  |  | 
gentamicin [Geninmycin] | 0.12 to 1 µg/mL |  |  | 0.5 to 2 µg/mL | 0.25 to 1 µg/mL |  |  | 2 µg/mL | 1 µg/mL | 1 µg/mL

From patent publication US10155971B2, “Rapid antibiotic susceptibility testing system based on bacterial immobilization using gelling agent, antibiotic diffusion and tracking of single bacterial cells” (SNU R & DB FOUNDATION, priority 2012, dated 2018)
